Assay results published in article PMC5442318, “Hundreds of dual-stage antimalarial molecules discovered by a functional gametocyte screen” (Nature Communications, 2017).
Where two headings read alike, the source gives them in different places.

Experiments:
[1] = system: P. falciparum stages IV–V gametocytes; assay: Gametocytocidal ATP-depletion assay (gametocyte ATP bioluminescence); type: cell-based, Plasmodium falciparum
How it was run: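 Read-out is luciferase luminescence of parasite ATP (BacTiter-Glo), standing in for viability. Double-purified mature stage IV–V gametocytes, 12,500 per well, were exposed 48 h at 37 °C in low-O2 gas; screening concentration 2 μM.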

[2] = system: P. falciparum stage V female gametocytes; assay: P. falciparum female gametocyte activation assay (Pf FGAA), 24 h or 48 h preincubation, Pfs25 expression readout; type: cell-based, Plasmodium falciparum NF54; conditions: for Pf FGAA classification: SLOW / FAST / GAMETE from activity at 48h, 24h, 0h incubation
How it was run: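 Female activation, triggered by xanthurenic acid and cooling, was scored by imaging Cy3-labelled anti-Pfs25 female gametes after 24 h at 26 °C. Beforehand, purified NF54 stage V gametocytes had been incubated with compound for either 24 h or 48 h (37 °C, 3% O2). Values are pIC50 from full-curve regression.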

[3] = system: P. falciparum asexual blood stages; conditions: cited from earlier work; for IC50: read-out: Pf Asexual blood stages XC50
HepG2 cells = assay: HepG2 cytotoxicity assay; type: cell-based
How it was run: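 Luminescent read-out (CellTiter-Glo) taken 10 min after reagent addition at RT; plates and reagent pre-equilibrated 30 min at RT.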

[4] = system: P. falciparum female gametes; assay: Pf FGAA with compounds added 30 min after triggering gametocyte activation (gamete-targeting); type: cell-based, Plasmodium falciparum NF54; conditions: 0h incubation time
[5] = 24h incubation time, read-out: Pf FGAA IC50 (µM) 24h
[6] = P. falciparum female gametocytes, mean, read-out: Gametocytes mean Pf FGAA IC50
[7] = TCAMS asexual blood stage data, ref 1 (Gamo, F. J. et al., Nature 465, 305-310, 2010)
[8] = TCAMS data, ref 1 (Gamo, F. J. et al., Nature 465, 305-310, 2010)
[9] = mean, read-out: Gametocytes mean Pf FGAA IC50
[10] = TCAMS data, ref 1 (Gamo et al., 2010)

## Cc1ccc(Cl)c2sc(N3CCN(C(=O)c4ccc([N+](=O)[O-])o4)CC3)nc12 [TCMDC-124311]
[1]
  Gametocytes mean ATP inhibition at 2µM: -39.73%
[2]; [5]
  IC50: 1.5 µM
[2]; [6]
  IC50: 1.44 µM
[2]
  Pf FGAA classification: FAST
[3]; [7]
  IC50: 0.32 µM
[3]; [8]
  Pf Asexual stages XC50: 0.32 µM
HepG2 cells; HepG2 cells
  HepG2 cells mean TOX50: 25.79 µM
[4]
  IC50: > 20 µM

## CCCCCCCN1CC[C@@H](CCCc2ccnc3ccc(OC)cc23)[C@@H](CNC)C1.O=C(O)C(=O)O [TCMDC-139875]
[1]
  Gametocytes mean ATP inhibition at 2µM (%): 9.45%
[2]; [5]
  IC50: 1.86 µM
[2]
  Pf FGAA classification: FAST
[2]; [9]
  IC50: 0.73 µM
[3]; [10]
  IC50: 0.21 µM
[3]; [8]
  Pf Asexual stages XC50: 0.21 µM
HepG2 cells
  HepG2 cells mean TOX50: 5.89 µM
[4]
  IC50: 14.4 µM

## CN1CCN(Cc2ccc(-c3cc4c(Nc5ccc(OCc6cccc(F)c6)c(Cl)c5)ncnc4s3)[nH]2)CC1 [TCMDC-135458]
[1]
  Gametocytes mean ATP inhibition at 2µM: -48.07%
[2]; [6]
  IC50: 2.41 µM
[2]
  Pf FGAA classification: SLOW
[3]; [7]
  IC50: 0.77 µM
[3]; [8]
  Pf Asexual stages XC50: 0.77 µM
HepG2 cells; HepG2 cells
  HepG2 cells mean TOX50: 10.98 µM
[4]
  IC50: > 20 µM

## COc1cccc(-c2csc(C(=O)NCC3CCN(Cc4ccc(C(C)C)cc4)C3)c2)c1.O=C(O)C(F)(F)F (centres unmarked) [TCMDC-134439]
[1]
  Gametocytes mean ATP inhibition at 2µM: 2.89%
[2]; [5]
  IC50: 3.22 µM
[2]; [6]
  IC50: 1.37 µM
[2]
  Pf FGAA classification: SLOW
[3]; [7]
  IC50: 1.39 µM
[3]; [8]
  Pf Asexual stages XC50: 1.39 µM
HepG2 cells; HepG2 cells
  HepG2 cells mean TOX50: 11.51 µM
[4]
  IC50: > 20 µM

## CC(C)(C)OC(=O)NCc1ccc(Nc2nnc(-c3cccc(C(=O)NCc4cc(C(F)(F)F)cc(C(F)(F)F)c4)c3)o2)cc1 [TCMDC-135229]
[1]
  Gametocytes mean ATP inhibition at 2µM: -6.34%
[2]; [5]
  IC50: 2.41 µM
[2]; [6]
  IC50: 3.14 µM
[2]
  Pf FGAA classification: SLOW
[3]; [7]
  IC50: 0.87 µM
[3]; [8]
  Pf Asexual stages XC50: 0.87 µM
HepG2 cells; HepG2 cells
  HepG2 cells mean TOX50: 21.43 µM
[4]
  IC50: > 20 µM

## O=C(O)C(F)(F)F.O=c1[nH]ccc2nc(N[C@@H]3CCNC3)nc(Nc3cc(Cl)cc(Cl)c3)c12 [TCMDC-135052]
[1]
  Gametocytes mean ATP inhibition at 2µM: -43.72%
[2]; [5]
  IC50: 2.57 µM
[2]; [6]
  IC50: 0.74 µM
[2]
  Pf FGAA classification: SLOW
[3]; [7]
  IC50: 0.74 µM
[3]; [8]
  Pf Asexual stages XC50: 0.74 µM
HepG2 cells; HepG2 cells
  HepG2 cells mean TOX50: 4.79 µM
[4]
  IC50: 15.1 µM

## CCn1c(-c2nonc2N)nc2c(-c3cccc(NC(=O)Nc4ccc(Cl)cc4)c3)ncc(OCCCN)c21.O=C(O)C(F)(F)F [TCMDC-136152]
[1]
  Gametocytes mean ATP inhibition at 2µM (%): -4.09%
[2]; [5]
  IC50: 6.65 µM
[2]
  Pf FGAA classification: SLOW
[2]; [9]
  IC50: 1.7 µM
[3]; [10]
  IC50: 0.83 µM
[3]; [8]
  Pf Asexual stages XC50: 0.83 µM
HepG2 cells
  HepG2 cells mean TOX50: 10.96 µM
[4]
  IC50: > 20 µM

## CN(/N=C/C=C/c1ccc(Cl)cc1)c1nc(NCCc2ccc(O)cc2)nc(N2CCNCC2)n1 [TCMDC-138546]
[1]
  Gametocytes mean ATP inhibition at 2µM (%): -1.95%
[2]; [5]
  IC50: 11.2 µM
[2]
  Pf FGAA classification: SLOW
[2]; [9]
  IC50: 1.96 µM
[3]; [10]
  IC50: 0.87 µM
[3]; [8]
  Pf Asexual stages XC50: 0.87 µM
HepG2 cells
  HepG2 cells mean TOX50: 13.18 µM
[4]
  IC50: > 20 µM

## O=C(Nc1cc(Cl)c(Cl)cc1NC(=O)c1cccc(-c2ccccc2)c1O)c1cccc(-c2ccccc2)c1O [TCMDC-139548]
[1]
  Gametocytes mean ATP inhibition at 2µM (%): 18.16%
[2]; [5]
  IC50: 2.22 µM
[2]
  Pf FGAA classification: FAST
[2]; [9]
  IC50: 1.09 µM
[3]; [10]
  IC50: 0.51 µM
[3]; [8]
  Pf Asexual stages XC50: 0.51 µM
HepG2 cells
  HepG2 cells mean TOX50: 3.09 µM
[4]
  IC50: > 20 µM

## CC(C)N1CCN(C(CN2CCN(CCCOc3ccccc3-c3ccccc3)CC2)c2ccc(F)cc2)CC1.Cl (centres unmarked) [TCMDC-135499]
[1]
  Gametocytes mean ATP inhibition at 2µM: -15.92%
[2]; [5]
  IC50: 5.74 µM
[2]; [6]
  IC50: 1.41 µM
[2]
  Pf FGAA classification: SLOW
[3]; [7]
  IC50: 0.79 µM
[3]; [8]
  Pf Asexual stages XC50: 0.79 µM
HepG2 cells; HepG2 cells
  HepG2 cells mean TOX50: 4.32 µM
[4]
  IC50: 12.3 µM

## Cc1noc(C)c1-c1ccc2c(Nc3nccc4ccccc34)c(C(N)=O)cnc2c1 [TCMDC-136456]
[1]
  Gametocytes mean ATP inhibition at 2µM (%): 0.55%
[2]; [5]
  IC50: 3.33 µM
[2]
  Pf FGAA classification: SLOW
[2]; [9]
  IC50: 1.54 µM
[3]; [10]
  IC50: 0.89 µM
[3]; [8]
  Pf Asexual stages XC50: 0.89 µM
HepG2 cells
  HepG2 cells mean TOX50: 3.85 µM
[4]
  IC50: > 20 µM

## c1ccn2c(Sc3ncnc4sccc34)ncc2c1 [TCMDC-124602]
[1]
  Gametocytes mean ATP inhibition at 2µM: 12.16%
[2]; [5]
  IC50: > 20 µM
[2]; [6]
  IC50: 0.24 µM
[2]
  Pf FGAA classification: SLOW
[3]; [7]
  IC50: 0.66 µM
[3]; [8]
  Pf Asexual stages XC50: 0.66 µM
HepG2 cells; HepG2 cells
  HepG2 cells TOX50: >100 µM
  HepG2 cells mean TOX50: >100 µM
[4]
  IC50: 14.4 µM

## N#Cc1ccc(-c2ccc(C(=O)NCC3CCN(CCN4CCC(c5ccc6c(c5OCC(N)=O)CCCC6)CC4)CC3)cc2)cc1 [TCMDC-134563]
[1]
  Gametocytes mean ATP inhibition at 2µM: -20.83%
[2]; [5]
  IC50: 5.88 µM
[2]; [6]
  IC50: 1.26 µM
[2]
  Pf FGAA classification: SLOW
[3]; [7]
  IC50: 0.44 µM
[3]; [8]
  Pf Asexual stages XC50: 0.44 µM
HepG2 cells; HepG2 cells
  HepG2 cells mean TOX50: 6.17 µM
[4]
  IC50: > 20 µM

## CN1CCN(c2cc3c(cc2Cl)CCN3C(=O)Nc2ccc(NC(=O)c3ccc(C(F)(F)F)cc3)cc2)CC1.Cl [TCMDC-139270]
[1]
  Gametocytes mean ATP inhibition at 2µM (%): 1.67%
[2]; [5]
  IC50: 1.54 µM
[2]
  Pf FGAA classification: FAST
[2]; [9]
  IC50: 0.69 µM
[3]; [10]
  IC50: 0.51 µM
[3]; [8]
  Pf Asexual stages XC50: 1.10 µM
HepG2 cells
  HepG2 cells mean TOX50: 3.99 µM
[4]
  IC50: > 20 µM

## Clc1ccc(Nc2nc(NCc3ccccc3)nc(N/N=C/c3ccccn3)n2)cc1 [TCMDC-138557]
[1]; Plasmodium falciparum, mean
  inhibition at 2 µM: 35.7%
[2]; Plasmodium falciparum, 24h incubation time, read-out: Pf FGAA IC50 (µM) 24h
  IC50: 0.4 µM
[2]; Plasmodium falciparum, mean, read-out: Gametocytes mean Pf FGAA IC50
  IC50: 0.26 µM
[2]
  Pf FGAA classification: FAST
[3]; [10]
  IC50: 0.78 µM
[3]; [8]
  Pf Asexual stages XC50: 0.78 µM
HepG2 cells; HepG2 TOX50 vs Pf FGAA IC50
  Selectivity ratio: 53.35
HepG2 cells
  HepG2 cells mean TOX50: 13.96 µM
[4]; Plasmodium falciparum
  IC50: 2.98 µM

## Cc1cccc2nc(-c3ccc(-c4ccc(CNCc5ccc(CN)cc5)cc4)s3)[nH]c12.O=C(O)C(F)(F)F [TCMDC-132809]
[1]
  Gametocytes mean ATP inhibition at 2µM: 36.48%
[2]; [5]
  IC50: 1.17 µM
[2]; [6]
  IC50: 0.47 µM
[2]
  Pf FGAA classification: FAST
[3]; [7]
  IC50: 0.44 µM
[3]; [8]
  Pf Asexual stages XC50: 0.44 µM
HepG2 cells; HepG2 cells
  HepG2 cells mean TOX50: 14.79 µM
[4]
  IC50: 5.14 µM

## CCN1CCC2(c3cccc(OC)c3)Cc3nc4ccccc4c(-c4ccccc4)c3CC2C1 (centres unmarked) [TCMDC-138968]
[1]
  Gametocytes mean ATP inhibition at 2µM (%): 21.53%
[2]; [5]
  IC50: > 20 µM
[2]
  Pf FGAA classification: SLOW
[2]; [9]
  IC50: 1.43 µM
[3]; [10]
  IC50: 0.35 µM
[3]; [8]
  Pf Asexual stages XC50: 0.79 µM
HepG2 cells
  HepG2 cells mean TOX50: 33.25 µM
[4]
  IC50: > 20 µM
